From article PMC1790702, “Non-Metabolic Membrane Tubulation and Permeability Induced by Bioactive Peptides” (PLoS ONE, 2007)

How the values were obtained:
CHO cells = assay: Cytotoxicity, CCK8 cell counting kit; type: cell-based; conditions: after 48 hours of incubation of CHO cells with 10 µM peptides, CCK8, DMEM plus 10 % FCS, 37°C
Method: (§1) Annexin 2-GFP expression vector was a kind gift of Dr Stephen Moss (London UK). The annexin2-GFP transfected MDCK cloning will be published elsewhere. MDCK cells were cultured as described. Peptides were added at different concentrations and the annexin-GFP fluorescence was followed in a Zeiss inverted microscope. Films were acquired with Metamorph software. Cytotoxicity in CHO cells was evaluated using the CCK8 cell counting kit (Dojindo Laboratories). Briefly, cell suspension (100 µl, 1500 CHO cells per well) were seeded in DMEM plus 10 % FCS in 96-well microtiter plate at 37°C. 10 µl of peptides were added twice to the cells after 24 and 48 hours of cell culture to obtain concentrations of 1, 10, 20 and 50 µM and the toxicity was evaluated 48 after treatment.

[1] = Small angle X-ray scattering of multilamellar vesicles, electron density profiles; type: physicochemical; conditions: PC/PG (9/1) MLVs, peptide/lipid 1/20 (w/w)
Method: Briefly, samples for SAXS examination were prepared by dissolving dry lipids in chloroform/methanol (2/1, vol/vol) and mixing to obtain the indicated proportions. The solvent was subsequently evaporated under a stream of oxygen-free dry nitrogen at 45°C and traces of solvent removed by a storage under high vacuum for 2 days. In order to obtain the Multiple Lamellar Vesicles (MLVs) the dry lipids were hydrated with an equal weight of buffer (5 mM HEPES pH 7.4). The aqueous lipid dispersion was thoroughly stirred to obtain a homogeneous dispersion, sealed under argon and kept until examination at 4°C. For X-ray measurements, lipid samples (∼20 µl) were deposited between two thin mica windows and mounted on a programmable thermal stage (Linkam, UK). The temperature was monitored by a thermocouple (Quad Service, Poissy, France) inserted directly into the lipid dispersion. Samples were exposed for 30 seconds to the beam (1.5 Å wavelength). The SAXS quadrant detector response was corrected for the uneven channel response using a static radioactive […] and S was calibrated for d-spacing using hydrated rat tail collagen. Information on the setup, calibration, and facilities are available on the station web site (http://www.srs.dl.ac.uk/ncd/station82/description.html).
The electron density profiles of lipid bilayers were obtained by Fourier synthesis of x-ray diffraction patterns. Integrated densities were derived from five diffraction orders (estimated spatial resolution <0.12 nm) by measuring the area under each diffraction peak separated and integrated using the software Peakfit (Seasolve).

[2] = Membrane deformations on giant unilamellar vesicles, phase contrast video-microscopy; conditions: GUVs PC/PG 9/1, 25°C
Method: Giant unilamellar vesicles (GUVs) were obtained by electroformation as described in [49]. Briefly, 1.5 µl of PC/PG (9/1, w/w) solution (0.4 mg/ml in chloroform/methanol 9/1) were spread on each platinum electrode. The lipid film was dried for half an hour under a gentle stream of nitrogen. The chamber was placed in an inverted microscope (Zeiss Axiovert 200M) and a thermocouple positioned to monitor the temperature (25°C). The electrodes were then completely hydrated with 2 ml of a low ionic strength buffer (HEPES 0.5 mM, pH 7.4 and conductivity 20 µS/cm). Immediately after buffer addition, a low frequency alternating field (5 Hz and 1 V) was applied on the electrodes for at least 2 hours. GUVs of diameter between 10 to 100 µm were observed. […] The observation temperature was 25°C.

[3] = Calcein leakage from LUVs; conditions: peptide/lipid ratio of 1/2; LUVs PC/PG/[14C]PC 9/1/0.01, 70 mM calcein, HEPES 10 mM pH 7.4, 5 min after peptide addition, 25°C, fluorescence, relative to lysis with 1% Triton X-100
Method: (§2) Large unilamellar vesicles (LUV) were prepared by extrusion through a polycarbonate filter (pore diameter 100 nm) in an extrusion device from Avestin as described in [38]. To obtain calcein loaded LUVs, at 2 mg/ml lipid concentration (PC/PG/ [^14C] PC 9/1/0.01 mol ratio), a solution in chloroform was dried under a gentle stream of nitrogen and maintained under vacuum for at least 2 h to ascertain removal of residual solvent. Then, the dried lipid film was hydrated with 1 ml of 70 mM calcein solution in HEPES 10 mM pH 7.4, vigorously vortexed and extruded. Free calcein was separated by passing the suspension trough two gel filtration columns in tandem (Econo-Pac 10 DG, Bio-Rad). The final lipid concentration was quantified measuring the [^14C] PC radiactivity with a liquid scintillation counter LS 6000 SC (Beckman Coulter France).
The release of calcein after 5 minutes of peptide exposure to LUVs was measured by spectrofluorimetry (Varian eclipse) at excitation and emission wavelengths of 490 nm and 500–650 nm, respectively. […] Leakage was expressed as a percent relative of the total amount of dye released by LUVs lysis with 1% Triton X-100, according to equation: % release = 100×(F(t)−F0)/(FT−F0). F(t) is the fluorescence intensity at time t, F0 is the fluorescence intensity before peptide addition and FT the fluorescence intensity after LUVs lysis.

[4] = tested on: Annexin 2-GFP transfected MDCK cells; assay: Cell permeability, Ca2+ influx monitored by Annexin 2-GFP movement; type: cell-based
Method: as §1

[5] = LUV aggregation by turbidimetry
Method: as §2
LUVs aggregation was monitored by turbidimetry (absorbance at 340 nm) in a Cary spectrophotometer (Varian) as described. Peptides were added to a 500 µl quartz cuvette containing 10 µg of LUVs in a HEPES 10 mM pH 7.4 buffer and the absorbance was followed during 20 min after peptide exposure. At this time, membrane aggregation attained the plateau.

[6] = Tryptophan fluorescence, membrane binding; conditions: excitation 280 nm, PC/PG (9/1) LUVs, 25°C
Method: Tryptophan fluorescence was measured following the recommendations described in [51]. Excitation wavelength was 280 nm, and emission spectrum was collected (290–600 nm). Excitation and emission slits were 6 nm and 5 nm respectively. A cross-oriented configuration of the polarizer (Expol = 90°, Empol = 0°) was used in order to reduce LUVs diffusion artefacts.

In the case of “RQIKIWFQNRRMKWKK-NH2 [pAntp, Penetratin, cell-penetrating peptide, basic, non-amphipathic, 16 residues, reference compound]”, the Lethality (CHO cells) is reported as 0%, the “S^−1 (repeat distance), Ld1 phase” value ([1]; 5 mM HEPES pH 7.4, 20°C) is reported as 6.06 nm and the “S^−1 (repeat distance), Ld2 phase” value ([1]; 5 mM HEPES pH 7.4, 20°C) is reported as 5.94 nm. For the same substance, the “dwater (thickness of the hydration layer), Ld2 phase” value ([1]; 20°C, peptide-free 2.19) was 2.31 nm, the “dwater (thickness of the hydration layer), Ld1 phase” value ([1]; 20°C, peptide-free 2.23) was 2.28 nm and the “dbilayer (thickness of the membrane bilayer), Ld2 phase” value ([1]; 20°C, peptide-free 3.62) was 3.63 nm. The “dbilayer (thickness of the membrane bilayer), Ld1 phase” value ([1]; 20°C, peptide-free 3.90) was 3.78 nm, the “Time for growing micro-tubes to invade the entire vesicle internal volume” value [2] was “less than 20 minutes” and the Calcein release [3] was 11%. The “Permeability towards ions at high peptide concentration” value ([4]; 100 µM peptide, Annexin 2-GFP MDCK cells) was “did not induce any increase in permeability towards ions”, the Cell permeabilization ([4]; monitored by calcium permeability inducing annexin 2 movement in MDCK cells) was “no” and the “Peptide/Lipid ratio at which LUVs are aggregated efficiently” value ([5]; discussion, from figure 5) was 1/20. For the same substance, the “P/L ratio at the plateau of LUV aggregation” value ([5]; turbidity at 340 nm, HEPES 10 mM pH 7.4, 20 min, 25°C) was 1/15, the “Peptide/lipid mass ratio (P/L) at which LUV aggregation starts” value ([5]; turbidity, absorbance at 340 nm, 10 µg LUVs in 500 µl HEPES 10 mM pH 7.4, 20 min after peptide addition, 25°C) was 1/25 and the “P/L ratio of peptide-membrane saturation (maximal shift in emission wavelength)” value [6] was 1/10.
